How the values were obtained:
[1] = test system: HepG2; test: Antiproliferative activity against human HepG2 cells at 100 uM relative to control; format: functional
[2] = test system: A549; test: Antiproliferative activity against human A549 cells at 100 uM relative to control; format: functional
[3] = test system: HCT-116; test: Antiproliferative activity against human HCT116 cells at 100 uM relative to control; format: functional
[4] = test system: DLD-1; test: Antiproliferative activity against human DLD1 cells at 100 uM relative to control; format: functional
[5] = test system: MDA-MB-231; test: Antiproliferative activity against human MDA-MB-231 cells at 100 uM relative to control; format: functional
[6] = test system: HEK293; test: Cytotoxicity against HEK293 cells at 100 uM relative to control; format: cell-based; details: human, hek293, 100 µM
[7] = target: T1, DNA ligase 1 (Homo sapiens, UniProt P18858); test: Inhibition of human DNA ligase 1 at 25 uM using nicked DNA as substrate after 30 mins relative to control
T1 sequence (P18858 whole entry): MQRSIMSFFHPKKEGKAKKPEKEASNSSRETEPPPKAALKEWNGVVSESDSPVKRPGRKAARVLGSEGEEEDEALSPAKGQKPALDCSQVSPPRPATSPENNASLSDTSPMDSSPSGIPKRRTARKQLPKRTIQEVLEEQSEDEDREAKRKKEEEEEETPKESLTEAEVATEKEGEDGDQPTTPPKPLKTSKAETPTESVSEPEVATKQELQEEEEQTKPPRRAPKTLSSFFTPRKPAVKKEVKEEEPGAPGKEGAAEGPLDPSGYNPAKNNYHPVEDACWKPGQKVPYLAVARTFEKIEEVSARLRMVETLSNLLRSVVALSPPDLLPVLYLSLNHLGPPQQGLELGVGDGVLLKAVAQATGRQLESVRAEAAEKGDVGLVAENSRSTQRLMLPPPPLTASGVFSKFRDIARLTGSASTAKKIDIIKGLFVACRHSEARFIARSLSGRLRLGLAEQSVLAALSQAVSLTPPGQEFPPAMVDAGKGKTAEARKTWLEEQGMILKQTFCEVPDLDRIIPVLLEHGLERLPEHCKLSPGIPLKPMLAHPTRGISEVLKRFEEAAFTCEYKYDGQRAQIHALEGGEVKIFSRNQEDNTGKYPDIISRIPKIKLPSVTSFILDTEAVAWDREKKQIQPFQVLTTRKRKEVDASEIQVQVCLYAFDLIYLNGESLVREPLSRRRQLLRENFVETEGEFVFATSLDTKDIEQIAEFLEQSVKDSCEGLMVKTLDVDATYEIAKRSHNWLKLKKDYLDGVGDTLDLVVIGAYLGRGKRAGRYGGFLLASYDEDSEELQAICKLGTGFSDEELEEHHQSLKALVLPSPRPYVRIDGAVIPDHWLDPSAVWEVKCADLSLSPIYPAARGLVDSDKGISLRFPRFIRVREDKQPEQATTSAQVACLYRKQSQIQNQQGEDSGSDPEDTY

[8] = target: T1, DNA ligase 1; test: Inhibition of human DNA ligase 1 expressed in Escherichia coli BL21DE3RP cells at 50 uM using 52-mer DNA/25-mer DNA/27-mer DNA as substrate after 30 mins by Cyanin3 dye-based fluorescence assay relative to control

Work on `CCOC(=O)C1=C(C)NC(=O)NC1c1cc(C)c(O)c(/C=N/NC(N)=S)c1` (configuration not stated) yielded an inhibition at 100 µM [1] of over 80%, an inhibition at 100 µM [2] of over 80% and an inhibition at 100 µM [3] of over 80%. The inhibition at 100 µM [4] was over 80%, the inhibition at 100 µM [5] was over 80% and the Activity [6] was over 80%.

`COc1cc(/C=C/c2cc(=O)oc3c2ccc2ccccc23)cc(OC)c1OC` was tested, and the inhibition [7] was under 50%.

In the case of `Cc1ccccc1/C=C1\CN(C(=S)NCCc2ccccc2)C/C(=C\c2ccccc2C)C1=O`, the inhibition [8] is reported as over 75%.

For `Cc1ccc(/C=C2\CN(C(=S)NCc3ccccc3)C/C(=C\c3ccc(C)cc3)C2=O)cc1`, the inhibition [8] was over 75%.

In the case of `COc1ccc(/C=C/c2cc(=O)oc3c2ccc2c(OC)cccc23)c(OC)c1`, the inhibition [7] is reported as under 50%.

`COc1ccc(/C=C/c2cc(=O)oc3c2ccc2c(C)cccc23)c(OC)c1` gave an inhibition [7] of over 90%.

`CCOC(=O)C1=C(C)NC(=S)NC1c1cc(/C=N/NC(=O)Nc2ccc(Cl)cc2)c(O)c(C(C)(C)C)c1` (configuration not stated) was tested, and the inhibition at 100 µM [1] was under 80%, the inhibition at 100 µM [2] was under 80% and the inhibition at 100 µM [3] was under 80%. It also gave an inhibition at 100 µM [4] of under 80%, an inhibition at 100 µM [5] of under 80% and an Activity [6] of under 80%.

`COc1ccc(/C=C/c2cc(=O)oc3c2ccc2ccccc23)cc1OC` showed an inhibition [7] of under 50%.

`O=c1cc(/C=C/c2ccc([N+](=O)[O-])cc2)c2ccc3ccccc3c2o1` was tested, and the inhibition [7] was over 90%.

`CCOC(=O)C1=C(C)NC(=O)NC1c1cc(/C=N/NC(=O)Nc2cccc(OC)c2)c(O)c(C(C)(C)C)c1` (configuration not stated) was tested, and the inhibition at 100 µM [1] was over 80%, the inhibition at 100 µM [2] was over 80% and the inhibition at 100 µM [3] was over 80%. For the same compound, the inhibition at 100 µM [4] was over 80%, the inhibition at 100 µM [5] was over 80% and the Activity [6] was over 80%.

Compound `Cc1ccc(/C=C2\CN(C(=S)Nc3ccccc3)C/C(=C\c3ccc(C)cc3)C2=O)cc1` has an inhibition [8] of over 75%.

In the case of `COc1ccc(/C=C/c2cc(=O)oc3c2ccc2c(OC)cccc23)cc1`, the inhibition [7] is reported as under 50%.

Work on `COc1ccc(OC)c(/C=C/c2cc(=O)oc3c2ccc2c(C)cccc23)c1` yielded an inhibition [7] of under 50%.

Compound `Cc1ccccc1/C=C1\CN(c2nc(-c3ccccc3)cs2)C/C(=C\c2ccccc2C)C1=O` has an inhibition [8] of over 75%.

With `CN(C)c1ccc(/C=C/c2cc(=O)oc3c2ccc2ccccc23)cc1` the inhibition [7] was under 50%.

For `Cc1ccccc1/C=C1\CN(C(=S)Nc2ccccc2)C/C(=C\c2ccccc2C)C1=O`, the inhibition [8] was over 75%.

With `CC(C)c1ccc(/C=C2\CN(c3nc(-c4ccccc4)cs3)C/C(=C\c3ccc(C(C)C)cc3)C2=O)cc1` the inhibition [8] was over 75%.

With `COc1ccc(/C=C/c2cc(=O)oc3c2ccc2c(C)cccc23)cc1OC` the inhibition [7] was under 50%.

Compound `COc1ccc(OC)c(/C=C/c2cc(=O)oc3c2ccc2c(OC)cccc23)c1` has an inhibition [7] of under 50%.

Work on `CCOC(=O)C1=C(C)NC(=O)NC1c1cc(/C=N/NC(=S)NC)c(O)c(C(C)(C)C)c1` (configuration not stated) yielded an inhibition at 100 µM [1] of over 80%, an inhibition at 100 µM [2] of over 80% and an inhibition at 100 µM [3] of over 80%. It also gave an inhibition at 100 µM [4] of over 80%, an inhibition at 100 µM [5] of over 80% and an Activity [6] of over 80%.

In the case of `COc1cccc2c1ccc1c(/C=C/c3ccc(C#N)cc3)cc(=O)oc12`, the inhibition [7] is reported as over 90%.

`COc1ccc(/C=C2\CN(c3nc(-c4ccccc4)cs3)C/C(=C\c3ccc(OC)cc3)C2=O)cc1` showed an inhibition [8] of over 75%.

Compound `CCOC(=O)C1=C(C)NC(=O)NC1c1cc(/C=N/NC(=S)Nc2ccccc2)c(O)c(C(C)(C)C)c1` (configuration not stated) has an inhibition at 100 µM [1] of over 80%, an inhibition at 100 µM [2] of over 80% and an inhibition at 100 µM [3] of over 80%. It also gave an inhibition at 100 µM [4] of over 80%, an inhibition at 100 µM [5] of over 80% and an Activity [6] of over 80%.

For `O=C1/C(=C/c2ccccc2F)CN(c2nc(-c3ccccc3)cs2)C/C1=C\c1ccccc1F`, the inhibition [8] was over 75%.

In the case of `O=C1/C(=C/c2ccc(F)cc2)CN(C(=S)NCc2ccccc2)C/C1=C\c1ccc(F)cc1`, the inhibition [8] is reported as over 75%.

For `O=C1/C(=C/c2ccc(F)cc2)CN(c2nc(-c3ccccc3)cs2)C/C1=C\c1ccc(F)cc1`, the inhibition [8] was over 75%.

`COc1ccc(/C=C/c2cc(=O)oc3c2ccc2ccccc23)cc1` showed an inhibition [7] of under 50%.

Compound `CC(C)c1ccc(/C=C2\CN(C(=S)NCc3ccccc3)C/C(=C\c3ccc(C(C)C)cc3)C2=O)cc1` has an inhibition [8] of over 75%.

In the case of `COc1cccc(OC)c1/C=C/c1cc(=O)oc2c1ccc1c(OC)cccc12`, the inhibition [7] is reported as under 50%.

With `COc1cc(/C=C/c2cc(=O)oc3c2ccc2c(OC)cccc23)cc(OC)c1OC` the inhibition [7] was under 50%.

Compound `COc1ccc(/C=C/c2cc(=O)oc3c2ccc2ccccc23)c(OC)c1` has an inhibition [7] of under 50%.

With `COc1ccc(/C=C2\CN(C(=S)NCc3ccccc3)C/C(=C\c3ccc(OC)cc3)C2=O)cc1` the inhibition [8] was over 75%.

Source: ChEMBL document CHEMBL4334494, “Recent advances in the targeting of human DNA ligase I as a potential new strategy for cancer treatment” (Eur J Med Chem, 2019)
